From article PMC9986306, “Beyond CBD: Inhibitory effects of lesser studied phytocannabinoids on human voltage-gated sodium channels” (Frontiers in Physiology, 2023)
Marks after values point to notes of the source that are not given here.

Columns and labels:
[1] = molecular target: T1, human NaV1.7 channel (SCN9A, CHO cells) (Homo sapiens, UniProt Q15858); assay: Planar patch-clamp, biophysical properties (activation, SSFI, recovery from SSFI); type: cell-based; conditions: change vs vehicle DMSO at IC50 concentration (CBD 11.9 μM, CBGA 16.4 μM, CBDVA 60 μM)
T1 construct: expressed in transfected cells
T1 sequence (Q15858 whole entry): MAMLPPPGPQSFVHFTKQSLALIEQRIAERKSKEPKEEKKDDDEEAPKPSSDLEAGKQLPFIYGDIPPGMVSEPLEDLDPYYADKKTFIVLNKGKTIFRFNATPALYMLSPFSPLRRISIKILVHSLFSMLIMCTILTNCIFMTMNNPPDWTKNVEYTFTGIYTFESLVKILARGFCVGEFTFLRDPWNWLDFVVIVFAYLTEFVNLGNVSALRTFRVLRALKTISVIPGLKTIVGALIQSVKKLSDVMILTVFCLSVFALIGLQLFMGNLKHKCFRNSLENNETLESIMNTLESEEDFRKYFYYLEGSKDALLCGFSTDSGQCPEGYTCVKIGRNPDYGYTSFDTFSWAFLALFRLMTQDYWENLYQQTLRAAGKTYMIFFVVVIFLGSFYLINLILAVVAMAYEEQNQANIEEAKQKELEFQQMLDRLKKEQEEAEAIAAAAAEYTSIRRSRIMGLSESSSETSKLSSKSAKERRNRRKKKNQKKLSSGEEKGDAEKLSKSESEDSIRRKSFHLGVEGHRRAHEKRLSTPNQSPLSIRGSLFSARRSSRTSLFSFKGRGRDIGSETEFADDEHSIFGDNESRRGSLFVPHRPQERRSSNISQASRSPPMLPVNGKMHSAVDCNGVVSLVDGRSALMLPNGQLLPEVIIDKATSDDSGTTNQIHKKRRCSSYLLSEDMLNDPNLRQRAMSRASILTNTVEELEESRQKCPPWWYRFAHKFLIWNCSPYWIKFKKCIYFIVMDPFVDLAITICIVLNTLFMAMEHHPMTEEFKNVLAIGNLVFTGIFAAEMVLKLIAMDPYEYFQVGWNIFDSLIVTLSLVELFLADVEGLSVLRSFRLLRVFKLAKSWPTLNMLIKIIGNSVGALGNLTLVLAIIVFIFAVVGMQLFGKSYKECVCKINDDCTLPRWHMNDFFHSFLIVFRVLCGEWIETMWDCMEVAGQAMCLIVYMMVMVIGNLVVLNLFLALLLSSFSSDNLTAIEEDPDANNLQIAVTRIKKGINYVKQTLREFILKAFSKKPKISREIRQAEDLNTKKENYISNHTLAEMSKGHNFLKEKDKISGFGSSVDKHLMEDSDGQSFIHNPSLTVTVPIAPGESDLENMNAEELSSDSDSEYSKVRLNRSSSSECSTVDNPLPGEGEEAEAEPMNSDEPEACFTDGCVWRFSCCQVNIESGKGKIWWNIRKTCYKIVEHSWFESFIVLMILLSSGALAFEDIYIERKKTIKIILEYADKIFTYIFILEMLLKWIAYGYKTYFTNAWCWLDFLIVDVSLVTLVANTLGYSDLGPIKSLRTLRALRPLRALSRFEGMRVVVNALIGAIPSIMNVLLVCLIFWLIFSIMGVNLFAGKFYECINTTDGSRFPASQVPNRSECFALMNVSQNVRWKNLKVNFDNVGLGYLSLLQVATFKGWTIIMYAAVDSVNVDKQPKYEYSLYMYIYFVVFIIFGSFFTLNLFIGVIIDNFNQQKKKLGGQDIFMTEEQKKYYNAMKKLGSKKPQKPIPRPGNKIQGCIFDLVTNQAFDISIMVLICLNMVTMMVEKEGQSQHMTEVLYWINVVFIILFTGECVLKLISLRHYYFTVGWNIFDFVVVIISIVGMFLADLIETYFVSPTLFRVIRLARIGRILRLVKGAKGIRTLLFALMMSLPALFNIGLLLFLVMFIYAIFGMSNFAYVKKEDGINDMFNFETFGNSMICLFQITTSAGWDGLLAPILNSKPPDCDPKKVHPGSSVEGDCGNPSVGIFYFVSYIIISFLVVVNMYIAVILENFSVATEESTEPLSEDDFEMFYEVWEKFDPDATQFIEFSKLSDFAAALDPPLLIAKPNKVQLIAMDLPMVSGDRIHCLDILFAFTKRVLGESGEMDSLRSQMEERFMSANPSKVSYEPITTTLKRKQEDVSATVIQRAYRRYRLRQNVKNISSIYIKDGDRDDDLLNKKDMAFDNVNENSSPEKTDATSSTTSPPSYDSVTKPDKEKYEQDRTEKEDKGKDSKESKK
Procedure: (§1) HEK293T cells stably expressing SCN1A or SCN2A and CHO cells stably expressing SCN8A or SCN9A were maintained as previously described ([Richards et al., 2018]; [Milligan et al., 2022]).
(§2) Patch-clamp recordings were made using a Patchliner® (Nanion Technologies, Munich, Germany) in the whole-cell configuration as previously described ([Richards et al., 2018]; [Milligan et al., 2022]). Briefly, cells were prepared in suspension at a density of 1 × 10^6-5 × 10^7 cells/mL. The external recording solution comprised (in mM): 140 NaCl, 4 KCl, 1 MgCl2, 2 CaCl2, 5 D-glucose, 10 HEPES, pH 7.4 with NaOH, ∼295 mOsm. The internal recording solution comprised (in mM): 50 CsCl, 60 CsF, 10 NaCl, 20 EGTA, 10 HEPES, pH 7.2 with CsOH, ∼285 mOsm. Medium single-hole planar NPC-16 chips with an average resistance of ∼2.5 MΩ were used. Chip and whole-cell capacitance were fully compensated, and 50% series resistance compensation applied. Recordings were acquired at 50 kHz with the low pass filter set to 10 kHz in PATCHMASTER (HEKA Instruments, NY, United States) and performed at 27°C. Offline analysis was performed using Microsoft Excel, MatLab R2019a (MathWorks) and GraphPad Prism 8 (Molecular Devices).
(§3) Voltage protocols were used, as previously described ([Richards et al., 2018]). Briefly, to study the voltage-dependence of activation, cells were held at −120 mV and depolarized to test potentials, in 5 mV increments, between −120 mV and +50 mV for 100 ms. To study steady-state fast inactivation, cells were held at conditioning pre-pulse potentials ranging from −120 mV to +30 mV in 5 mV increments from a holding potential of −120 mV and a test pulse at 5 mV for 20 ms. Recovery from fast inactivation was studied by pre-pulsing the cells to 0 mV from a holding potential of −120 mV for 50 ms, to fully inactivate channels. The voltage was then stepped back to the holding potential for variable interpulse intervals (ipi from 0 to 39 ms in 3 ms increments). To test channel availability, the voltage was stepped to 0 mV for 50 ms.
(§4) To examine the voltage-dependence of activation, normalized current-voltage (I-V) relationships were converted to conductance (G) using the following equation: G = I/(V−V r ) where Vr is the reversal potential for Na^+. The voltage-dependence of conductance and availability were normalized and fitted to a Boltzmann equation: G = 1/(1 + exp [(V−V 0.5)/a]), where a is the slope of the half-maximum, V is the potential of the given pulse, and V 0.5 is the potential for the half-maximal activation/inactivation. The time course of inactivation was fitted to a single exponential function I/Imax = I0+A*exp (-t-t0/τ)+C, where I0 is the non-inactivating component, Imax is the peak current, t is time, and A is the component for the time constant τ. Time constants were plotted against voltage and the data fitted with a decaying exponential equation Y = span*exp (−K*x)+plateau, where span is the starting point of the curve, K is the decay factor, plateau is the value the curve decays to, and x is time. To measure recovery from inactivation, normalized currents were plotted against ipi and data fitted with equation I/I max = 1-exp/(rc + x), where I max is maximal current; rc recovery rate constant; x is time. Peak current (I) was plotted as fractional recovery against the recovery period by normalizing to the maximum current (Imax) during the conditioning potentials.

[2] = molecular target: T2, human NaV1.2 channel (SCN2A, HEK293T cells) (Homo sapiens, UniProt Q99250); assay: as above; type: cell-based; conditions: change vs vehicle DMSO at IC50 concentration (CBD 18.4 μM, CBGA 14.7 μM, CBDVA 60 μM)
T2 construct: expressed in transfected cells
T2 sequence (Q99250 whole entry): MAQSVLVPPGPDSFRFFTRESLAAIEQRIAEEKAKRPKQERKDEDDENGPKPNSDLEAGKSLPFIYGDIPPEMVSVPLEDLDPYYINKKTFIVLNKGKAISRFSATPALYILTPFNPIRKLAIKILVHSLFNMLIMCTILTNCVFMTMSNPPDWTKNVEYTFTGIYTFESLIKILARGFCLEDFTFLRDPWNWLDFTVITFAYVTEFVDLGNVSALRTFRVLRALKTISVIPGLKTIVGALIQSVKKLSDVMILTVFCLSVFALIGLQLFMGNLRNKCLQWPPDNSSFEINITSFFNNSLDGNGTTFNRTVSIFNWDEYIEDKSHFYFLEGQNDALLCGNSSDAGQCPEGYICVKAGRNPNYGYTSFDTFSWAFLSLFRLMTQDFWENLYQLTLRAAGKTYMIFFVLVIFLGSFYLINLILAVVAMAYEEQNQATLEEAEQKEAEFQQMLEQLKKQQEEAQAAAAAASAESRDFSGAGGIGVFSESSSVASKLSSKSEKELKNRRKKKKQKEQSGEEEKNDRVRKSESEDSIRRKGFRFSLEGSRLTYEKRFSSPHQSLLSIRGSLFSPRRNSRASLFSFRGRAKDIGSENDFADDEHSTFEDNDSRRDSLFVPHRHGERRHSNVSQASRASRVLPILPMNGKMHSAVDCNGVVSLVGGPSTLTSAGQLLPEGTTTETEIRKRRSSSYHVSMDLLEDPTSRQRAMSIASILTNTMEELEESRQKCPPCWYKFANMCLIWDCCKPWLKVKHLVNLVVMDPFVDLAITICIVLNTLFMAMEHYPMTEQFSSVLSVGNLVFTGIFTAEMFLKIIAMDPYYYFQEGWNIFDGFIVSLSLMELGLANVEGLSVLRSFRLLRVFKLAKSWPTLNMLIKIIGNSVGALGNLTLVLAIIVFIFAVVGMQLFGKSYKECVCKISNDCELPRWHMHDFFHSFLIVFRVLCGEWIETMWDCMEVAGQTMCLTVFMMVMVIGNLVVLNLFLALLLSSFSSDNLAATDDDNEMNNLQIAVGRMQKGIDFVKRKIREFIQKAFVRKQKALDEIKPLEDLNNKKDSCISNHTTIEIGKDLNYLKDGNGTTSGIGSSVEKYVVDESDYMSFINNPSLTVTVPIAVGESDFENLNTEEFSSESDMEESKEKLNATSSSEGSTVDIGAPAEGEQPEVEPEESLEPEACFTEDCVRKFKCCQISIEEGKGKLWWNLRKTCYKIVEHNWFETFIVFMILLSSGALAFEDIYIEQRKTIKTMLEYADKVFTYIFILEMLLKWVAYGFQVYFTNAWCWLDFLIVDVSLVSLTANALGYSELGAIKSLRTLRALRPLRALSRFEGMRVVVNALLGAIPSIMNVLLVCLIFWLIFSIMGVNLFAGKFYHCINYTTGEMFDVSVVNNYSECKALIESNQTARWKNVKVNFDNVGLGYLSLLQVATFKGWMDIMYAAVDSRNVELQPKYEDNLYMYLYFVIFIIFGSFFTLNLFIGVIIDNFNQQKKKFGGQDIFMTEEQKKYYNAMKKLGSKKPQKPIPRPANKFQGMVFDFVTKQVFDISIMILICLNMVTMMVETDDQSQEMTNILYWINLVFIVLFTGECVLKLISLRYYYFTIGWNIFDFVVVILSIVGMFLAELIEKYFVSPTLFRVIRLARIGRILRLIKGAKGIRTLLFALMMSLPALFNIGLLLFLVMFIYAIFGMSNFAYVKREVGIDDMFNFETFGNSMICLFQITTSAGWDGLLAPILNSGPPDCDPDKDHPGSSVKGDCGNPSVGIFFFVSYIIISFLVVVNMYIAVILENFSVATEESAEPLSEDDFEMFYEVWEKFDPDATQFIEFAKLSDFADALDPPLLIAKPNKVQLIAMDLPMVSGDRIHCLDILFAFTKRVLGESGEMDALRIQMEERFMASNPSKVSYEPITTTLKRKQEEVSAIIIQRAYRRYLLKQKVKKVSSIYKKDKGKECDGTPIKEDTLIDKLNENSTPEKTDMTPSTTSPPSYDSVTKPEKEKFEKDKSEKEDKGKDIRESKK
Procedure: as §1, §2, §3, §4

[3] = molecular target: T3, human NaV1.1 channel (SCN1A, HEK293T cells) (Homo sapiens, UniProt P35498); assay: as above; type: cell-based; conditions: change vs vehicle DMSO at IC50 concentration (CBD 18.5 μM, CBGA 13.6 μM, CBDVA 50 μM)
T3 construct: expressed in transfected cells
Procedure: as §1, §2, §3, §4

[4] = molecular target: T4, human NaV1.6 channel (SCN8A, CHO cells) (Homo sapiens, UniProt Q9UQD0); assay: as above; type: cell-based; conditions: change vs vehicle DMSO at IC50 concentration (CBD 16.6 μM, CBGA 12.0 μM, CBDVA 24.1 μM)
T4 construct: expressed in transfected cells
Procedure: as §1, §2, §3, §4

[5] = tested on: Scn1a+/− mouse model of DS; design: method as in Anderson et al., 2021b; conditions: monotherapy, ref Anderson et al., 2021b; cited from earlier work
[6] = tested on: Scn1a+/− mouse model of DS; design: method as in Anderson et al., 2021a; Anderson et al., 2021b; conditions: Scn1a+/− mice, ref Anderson et al., 2021a, 2021b; cited from earlier work
[7] = tested on: NaV1.1, NaV1.2, NaV1.6 and NaV1.7 channels; assay: Planar patch-clamp, IC50 values summarised across the four isoforms; type: cell-based, human; conditions: range over NaV1.1, NaV1.2, NaV1.6, NaV1.7; read-out: IC50 values determined here (range over isoforms)
Procedure: as §1
as §2, with “Devices). […]” for “Devices).”

[8] = molecular target: T2, human NaV1.2 channel (SCN2A, HEK293T cells); assay: Planar patch-clamp, inhibition of peak sodium current (IC50 protocol); type: cell-based; conditions: mean ± SEM
Procedure: as §1, §2
To determine half-maximal inhibitory concentrations (IC50), cells were held at −80 mV, stepped to −120 mV for 200 ms followed by 50 ms test depolarization to 0 mV every 2 s for 30 s in the presence of vehicle control (DMSO). The cells were then exposed to an individual phytocannabinoid (CBD, CBGA, CBDVA, CBG, CBCA or CBC) at concentrations between 0.1 and 100 μM, sequentially for 5 min. Currents for individual cells were averaged over 24 s periods directly before application and following a 5 min exposure of compound. Leak subtraction was applied before normalization of current amplitude. Normalized mean data were fit to the Hill equation.

CCCCCc1cc(O)c(C/C=C(\C)CCC=C(C)C)c(O)c1C(=O)O [CBGA, cannabigerolic acid]
Inactivation △ V0.5 inact ([1]; SSFI): −5.5 ± 2.1* mV | Inactivation △ slope factor ([1]; SSFI): 1.3 ± 0.5* | Activation △ Slope factor [1]: 1.1 ± 0.2*** | Activation △ V0.5 act [1]: 4.6 ± 1.7* mV | Inactivation △ τinact SSFI at 5 mV [1]: 0.3 ± 0.06*** | Inactivation △ V0.5 inact ([2]; SSFI): −3.0 ± 1.5 mV | Inactivation △ slope factor ([2]; SSFI): 2.5 ± 0.8** | Activation △ Slope factor [2]: 1.9 ± 1.0 | Activation △ V0.5 act [2]: 1.8 ± 2.3 mV | Inactivation △ τinact SSFI at 5 mV [2]: 0.08 ± 0.1 | Inactivation △ V0.5 inact ([3]; SSFI): 1.0 ± 1.29 mV | Activation △ Slope factor [3]: 3.1 ± 1.7 | Activation △ V0.5 act [3]: 3.9 ± 1.2** mV | Inactivation △ τinact SSFI at 5 mV [3]: 0.4 ± 0.1* | Inactivation △ V0.5 inact ([4]; SSFI): −0.5 ± 2.4 mV | Inactivation △ slope factor ([4]; SSFI): 1.1 ± 0.2** | Activation △ Slope factor [4]: −0.4 ± 0.3 | Activation △ V0.5 act [4]: 0.1 ± 1.6 mV | Inactivation △ τinact SSFI at 5 mV [4]: 0.2 ± 0.2 | Effect on spontaneous seizures [5]: proconvulsive effects | Effect against hyperthermia-induced seizures [6]: anti-convulsant properties | IC50 [7]: 12 to 16.4 µM | Slope (Hill slope coefficient) ([8]; NaV1.2 concentration-response): 2.2 ± 0.4 | IC50 ([8]; NaV1.2 peak current, 0.1–100 µM, 5 min exposure): 14.7 ± 1.1 µM
